Experimental data from PMC9945734 (BMC Medicine, 2023).
“And” between values parts separate entries of the source, which are not always exact repeats. Identical values can stand only once.

Tested on: PC-3-KQ and PC-3-KR cells
Assay: RNA-sequencing and differential gene expression
Format: cell-based, human
Parameters: CEP19 tpm_KQ_NTZ / CCNA1 tpm_KQ_NTZ / BTN3A3 tpm_KQ_NTZ / CAPSL tpm_KQ_NTZ / CELF3 tpm_KQ_NTZ / C5orf63 tpm_KQ_NTZ / tpm MSMP / tpm MYH7B / tpm CACNG8 / CNTNAP3B tpm_KQ_NTZ / IL21R tpm_KQ_NTZ / CYP8B1 tpm_KQ_NTZ / C2orf78 tpm_KQ_NTZ / CALB1 tpm_KQ_NTZ / COL4A3 tpm_KQ_NTZ / CFB tpm_KQ_NTZ / PFKFB1 tpm_KQ_NTZ / BTBD11 tpm_KQ_NTZ: scale not given here
Settings: PC-3-KQ cells with NTZ, RNA-Seq, listed as NTZ

## CC(=O)Oc1ccccc1C(=O)Nc1ncc([N+](=O)[O-])s1 [Nitazoxanide]
Replicates 1-3
  NT5E tpm_KQ_NTZ: -0.3117 and -0.2802 and -0.3345
  NTF4 tpm_KQ_NTZ: -0.8704 and -0.4013 and -0.4312
  PADI3 tpm_KQ_NTZ: -0.6957 and -0.9817 and -0.9686
  PCDH18 tpm_KQ_NTZ: -1.061 and -0.1951 and -0.6677
  PDGFA tpm_KQ_NTZ: 0.404 and 0.3967 and 0.4405
  PDZK1 tpm_KQ_NTZ: -0.2414 and 0.3327 and -0.5574
  PEG10 tpm_KQ_NTZ: -0.4908 and -0.6617 and -1.075
  PFKFB1 tpm_KQ_NTZ: 0.1063 and -0.5815 and -0.9802
  PGAM4 tpm_KQ_NTZ: -1.18 and 0.2721 and 0.1017
  PHACTR3 tpm_KQ_NTZ: -0.9821 and -1.045 and -0.9733
  PHOSPHO2 tpm_KQ_NTZ: -0.6941 and -0.4899 and -0.4437
  PIANP tpm_KQ_NTZ: -0.9238 and -0.4554 and -0.5206
  PITPNM3 tpm_KQ_NTZ: 0.8488 and 0.3478 and 1.199
  PKIA tpm_KQ_NTZ: -0.2506 and -0.236 and -0.2863
  PRKAR1B tpm_KQ_NTZ: 0.4324 and 0.4514 and 0.7549
  PRKDC tpm_KQ_NTZ: 0.0232 and -0.08402 and -0.5624
  PROS1 tpm_KQ_NTZ: 0.5403 and 0.6849 and 0.6327
  PRR16 tpm_KQ_NTZ: -0.9713 and 0.1931 and -0.1646
  PRR29 tpm_KQ_NTZ: -0.06306 and -0.3085 and -0.2669
  PTPRR tpm_KQ_NTZ: 0.6595 and 1.295 and 0.9528
  RBL1 tpm_KQ_NTZ: -0.1965 and -0.4796 and -0.579
  RLN1 tpm_KQ_NTZ: -0.3286 and -1.073 and -1.143
  RMDN2 tpm_KQ_NTZ: 0.2344 and 0.5874 and -0.2937
  RND1 tpm_KQ_NTZ: 0.2005 and 0.3255 and 0.6944
  S100A6 tpm_KQ_NTZ: -0.1375 and -0.00541 and 0.1164
  SCG2 tpm_KQ_NTZ: 0.5158 and -0.04635 and -1.114
  SDCBP2 tpm_KQ_NTZ: 0.1173 and 0.1996 and 0.2731
  SERINC5 tpm_KQ_NTZ: 0.7977 and 0.7386 and 0.3271
  SERPINA3 tpm_KQ_NTZ: 0.1383 and 0.1648 and 0.1316
  SERPINB4 tpm_KQ_NTZ: -0.3324 and -0.2205 and -0.9332
  SERPIND1 tpm_KQ_NTZ: -1.101 and -0.7105 and -1.316
  SGK1 tpm_KQ_NTZ: -0.7129 and -0.3809 and -0.4182
  SHISA3 tpm_KQ_NTZ: -0.1615 and -0.01424 and -0.03964
  SLC1A1 tpm_KQ_NTZ: 0.007137 and 0.6447 and 0.4297
  SLC26A9 tpm_KQ_NTZ: -0.2744 and 0.2725 and -0.927
  SLC41A2 tpm_KQ_NTZ: 0.4534 and 0.4303 and 0.4488
  SLC44A4 tpm_KQ_NTZ: 0.5521 and 0.8689 and 0.6934
  SLC45A2 tpm_KQ_NTZ: 0.257 and 0.07385 and 0.3908
  SLITRK5 tpm_KQ_NTZ: 0.1465 and 0.3195 and -0.4377
  SMCO4 tpm_KQ_NTZ: 0.1432 and -0.08242 and 0.08549
  SPOCK2 tpm_KQ_NTZ: 0.7174 and 0.4246 and 1.38
  STK32A tpm_KQ_NTZ: -0.2617 and 0.04669 and 0.4294
  SYN3 tpm_KQ_NTZ: 0.4729 and 0.3702 and 0.1862
  TENM4 tpm_KQ_NTZ: 0.2992 and -0.3092 and -0.102
  TIMM8A tpm_KQ_NTZ: -0.8837 and -0.8279 and -0.9653
  TJP3 tpm_KQ_NTZ: 0.01147 and 0.1369 and 0.1215
  TMEM140 tpm_KQ_NTZ: 0.2484 and 0.4158 and -0.0465
  TMEM269 tpm_KQ_NTZ: 0.406 and 0.06998 and -0.4941
  TMOD1 tpm_KQ_NTZ: 1.342 and 1.235 and 0.499
  TMPRSS2 tpm_KQ_NTZ: 0.007165 (2×) and 0.0842
  TNFAIP8L2-SCNM1 tpm_KQ_NTZ: -0.5467 and -1.562 and 0.4492
  TNFRSF11B tpm_KQ_NTZ: -0.9649 and -1.078 and -1.224
  TSPAN18 tpm_KQ_NTZ: 0.09114 and -0.09342 and 0.05473
  TTC9 tpm_KQ_NTZ: 0.2094 and 0.2356 and 0.6409
  TTC30A tpm_KQ_NTZ: -0.04558 and -0.08793 and -0.6072
  TTC30B tpm_KQ_NTZ: -0.2207 and -0.5797 and -0.3178
  UST tpm_KQ_NTZ: 0.2599 and 0.1194 and -0.01732
  WHRN tpm_KQ_NTZ: 0.9053 and 0.8473 and 0.7758
  WNT4 tpm_KQ_NTZ: 0.9814 and 1.222 and 1.387
  WNT9A tpm_KQ_NTZ: 0.12 and -0.05504 and -0.01608
  ZFPM2 tpm_KQ_NTZ: -0.1773 and -0.1147 and -0.2406
  ZNF596 tpm_KQ_NTZ: -1.141 and -0.2632 and -0.6635
Replicates NTZ1-3
  tpm ABAT: 1.268 and 0.9682 and 0.237
  tpm ADIRF: -0.4477 and -0.5226 and -0.3352
  tpm ANKRD63: 0.1535 and -0.6652 and 0.3857
  tpm ANXA8: 0.9428 and 0.3454 and -1.083
  tpm ANXA8L1: -0.298 and -0.4234 and -0.7464
  tpm ARG2: 1.137 and 1.333 and 1.316
  tpm ATP2A3: 0.8036 (2×) and -0.2131
  tpm C11orf65: -1.057 and -0.2742 and -0.729
  tpm CACNG8: -0.5252 and -0.3048 and -0.9129
  tpm CAPN12: 0.129 and 0.1138 (2×)
  tpm CD14: -1.105 and -0.7008
  tpm CGB5: 0.9167 and 0.2487 and 0.1354
  tpm CHPF2: 1.06 and 0.6508 and 0.6663
  tpm COL4A4: 0.03123 and -0.5371 and -0.2214
  tpm COL4A6: -0.1711 and -0.6593 and -0.6324
  tpm CXCL5: -0.4877 and -0.4195 and -0.4771
  tpm CYP1B1: 0.6593 and 0.4159 and 0.0748
  tpm CYP2E1: 0.3931 and 0.8042 and 0.2474
